Laboratory results from the NIST ThermoML archive (doi:10.1016/j.jct.2015.07.042).
Numbers after ± are expanded uncertainties.

Experiment: activity coefficient (dimensionless); of the first substance listed, at infinite dilution; xn = mol fraction of the nth substance listed
Conditions: 101 kPa, Liquid, Chromatography, x1 = 0

Compound	activity coefficient (398.15 K)	activity coefficient (408.15 K)	activity coefficient (418.15 K)	activity coefficient (428.15 K)	activity coefficient (358.15 K)	activity coefficient (368.15 K)	activity coefficient (378.15 K)	activity coefficient (388.15 K)
O [water] + CCCCn1cc[n+](C)c1.[Cl-]	0.07 ± 0.03	0.077 ± 0.03	0.085 ± 0.03	0.094 ± 0.03				
C=CCCCC [hex-1-ene] + CCCCn1cc[n+](C)c1.COP(=O)([O-])OC					13.9 ± 0.95	13.7 ± 0.94	13.4 ± 0.91	13.2 ± 0.9
CCC(=O)OC [methyl propanoate] + CCCCn1cc[n+](C)c1.COP(=O)([O-])OC					3.56 ± 0.24	3.65 ± 0.25	3.76 ± 0.26	3.93 ± 0.27
CCCC(C)=O [pentan-2-one] + CCCCn1cc[n+](C)c1.[Cl-]					7.59 ± 0.52	7.71 ± 0.53	7.78 ± 0.53	8.01 ± 0.55
CCC(C)(C)OC [2-methoxy-2-methylbutane] + CCCCn1cc[n+](C)c1.COP(=O)([O-])OC					9.5 ± 0.65	9.61 ± 0.66	9.66 ± 0.66	9.75 ± 0.67
CCOC(C)=O [ethyl acetate] + CCCCn1cc[n+](C)c1.COP(=O)([O-])OC					3.81 ± 0.26	3.91 ± 0.27	4.01 ± 0.27	4.18 ± 0.28
C1CCCCCCC1 [cyclooctane] + CCCCn1cc[n+](C)c1.[Cl-]					79.5 ± 5.5	75.4 ± 5.2	71.1 ± 4.9	68.6 ± 4.7
C=COC(C)=O [vinyl acetate] + CCCCn1cc[n+](C)c1.CS(=O)(=O)[O-]					3.47 ± 0.24	3.58 ± 0.24	3.76 ± 0.26	3.92 ± 0.27
CCCCCCCCCC [decane] + CCCCn1cc[n+](C)c1.[Cl-]					704 ± 48	638 ± 44	580 ± 40	560 ± 39
CCCCCCCCCC [decane] + CCCCn1cc[n+](C)c1.COP(=O)([O-])OC					93.4 ± 6.4	88.5 ± 6.1	84.7 ± 5.8	81.6 ± 5.6
Cc1cccc(C)c1 [1,3-dimethylbenzene] + CCCCn1cc[n+](C)c1.[Cl-]					14.3 ± 0.98	14.5 ± 0.99	14.7 ± 1	15 ± 1
Cc1ccccc1 [toluene] + CCCCn1cc[n+](C)c1.COP(=O)([O-])OC					3.86 ± 0.26	3.99 ± 0.27	4.09 ± 0.28	4.29 ± 0.29
COC(C)=O [methyl ethanoate] + CCCCn1cc[n+](C)c1.CS(=O)(=O)[O-]					2.94 ± 0.2	3.03 ± 0.21	3.14 ± 0.21	3.33 ± 0.23
CCO [ethanol] + CCCCn1cc[n+](C)c1.COP(=O)([O-])OC	0.16 ± 0.029	0.173 ± 0.029	0.189 ± 0.029	0.205 ± 0.029				
CCCOCCC [dipropyl ether] + CCCCn1cc[n+](C)c1.COP(=O)([O-])OC					13.9 ± 0.95	13.7 ± 0.94	13.6 ± 0.93	13.4 ± 0.92
C1CCCCCCC1 [cyclooctane] + CCCCn1cc[n+](C)c1.CS(=O)(=O)[O-]					57.1 ± 3.9	55.7 ± 3.8	54.4 ± 3.7	53.6 ± 3.7
CC1CCCCC1 [methylcyclohexane] + CCCCn1cc[n+](C)c1.CS(=O)(=O)[O-]					52.8 ± 3.6	51.7 ± 3.5	50.9 ± 3.5	50.4 ± 3.5
CCC(C)O (configuration not stated) [butan-2-ol] + CCCCn1cc[n+](C)c1.[Cl-]	0.749 ± 0.049	0.804 ± 0.052	0.865 ± 0.055	0.931 ± 0.059				
C1CCCC1 [cyclopentane] + CCCCn1cc[n+](C)c1.[Cl-]					38.7 ± 2.6	36.2 ± 2.5	33.5 ± 2.3	31.8 ± 2.2
CCCCCCCC [octane] + CCCCn1cc[n+](C)c1.COP(=O)([O-])OC					47.9 ± 3.3	46.2 ± 3.2	44.6 ± 3	43.4 ± 3
c1ccsc1 [thiophene] + CCCCn1cc[n+](C)c1.[Cl-]					2.04 ± 0.14	2.16 ± 0.15	2.27 ± 0.15	2.41 ± 0.16
CCCCO [butan-1-ol] + CCCCn1cc[n+](C)c1.COP(=O)([O-])OC	0.247 ± 0.03	0.271 ± 0.03	0.299 ± 0.031	0.324 ± 0.032				
C1=CCCCC1 [cyclohexene] + CCCCn1cc[n+](C)c1.[Cl-]					22.8 ± 1.6	22.3 ± 1.5	21.5 ± 1.5	21.3 ± 1.5
